Results: patent publication US9809574B2, “Isoindoline or isoquinoline compounds, a process for their preparation and pharmaceutical compositions containing them” (LES LABORATOIRES SERVIER, priority 2013, dated 2017)
Counter-ions that a name gives are not always drawn.

Assays:
Bcl-2 protein = Bcl-2 protein (histag-Bcl-2, UniProtKB P10415) (Homo sapiens (Human), UniProt P10415); experiment: Inhibition of Bcl-2 by the fluorescence polarisation technique; format: binding; settings: fluorescence polarisation test; incubation for 2 hours; read-out: IC50 (nM) Bcl-2 FP
Description: For partial inhibitors, the percentage fluorescence polarisation inhibition for a given concentration of the test compound is indicated.

[1] = test system: RS4; 11 leukaemia cell line; experiment: In vitro cytotoxicity, Microculture Tetrazolium Assay (MTT); format: cell-based; settings: Homo sapiens, 11 cells exposed for 48 hours
Procedure: The cytotoxicity studies were carried out on the RS4; 11 leukaemia cell line and on H146 small Cell Lung Carcinoma cell line. The cells are distributed onto microplates and exposed to the test compounds for 48 hours. The cell viability is then quantified by a colorimetric assay, the Microculture Tetrazolium Assay (Cancer Res., 1987, 47, 939-942).

Chain of Bcl-2 protein (P10415 whole entry): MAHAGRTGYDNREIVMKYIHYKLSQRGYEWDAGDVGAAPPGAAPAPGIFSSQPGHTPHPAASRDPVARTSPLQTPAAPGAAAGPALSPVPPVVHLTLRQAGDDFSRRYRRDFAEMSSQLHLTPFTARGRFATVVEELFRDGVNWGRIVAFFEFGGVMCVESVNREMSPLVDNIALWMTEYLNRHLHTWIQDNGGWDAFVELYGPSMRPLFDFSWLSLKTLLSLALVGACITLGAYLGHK

| SMILES | IC50 (Bcl-2 protein) [nM] | IC50 [1] [nM] |
| --- | --- | --- |
| Cc1c(C(=O)N(C)c2ccc(O)cc2)cc(-c2cc3c(cc2C(=O)N2Cc4ccccc4C[C@H]2CN(C)C)CN(C(=O)Cc2ccccc2)CC3)n1C [Example 777, 5-{7-[(3S)-3-[(Dimethylamino)methyl]-1,2,3,4-tetrahydroisoquinoline-2-carbonyl]-2-(2-phenylacetyl)-1,2,3,4-tetrahydroisoquinolin-6-yl}-N-(4-hydroxyphenyl)-N,1,2-trimethyl-1H-pyrrole-3-carboxamide] | 4.1 | 30 |
| Cc1c(C(=O)N(C)c2ccc(O)cc2)cc(-c2cc3c(cc2C(=O)N2Cc4ccccc4C[C@H]2C)CN(C(=O)Oc2ccccc2CCC(=O)N(C)C)CC3)n1C [Example 775, 2-[2-(Dimethylcarbamoyl)ethyl]phenyl 6-{4-[(4-hydroxyphenyl)(methyl)carbamoyl]-1,5-dimethyl-1H-pyrrol-2-yl}-7-[(3R)-3-methyl-1,2,3,4-tetrahydroisoquinoline-2-carbonyl]-1,2,3,4-tetrahydroisoquinoline-2-carboxylate] | 2.4 | 6.3 |
| Cc1c(C(=O)N(C)c2ccc(O)cc2)cc(-c2cc3c(cc2C(=O)N2Cc4ccccc4C[C@H]2CN2CCOCC2)CN(C(=O)Oc2ccc(C(=O)O)cc2)CC3)n1C [Example 721, 4-(6-{4-[(4-Hydroxyphenyl)(methyl)carbamoyl]-1,5-dimethyl-1H-pyrrol-2-yl}-7-[(3S)-3-(morpholin-4-ylmethyl)-1,2,3,4-tetrahydroisoquinoline-2-carbonyl]-1,2,3,4-tetrahydroisoquinoline-2-carbonyloxy)benzoic acid] | 4.9 | > 150 |
| C[C@@H]1Cc2ccccc2CN1C(=O)c1cc2c(cc1-c1cc(C(=O)N(C)c3ccc(O)cc3)c3n1CCCC3)CN(Cc1ccccc1)C2 [Example 33, 3-{2-Benzyl-6-[(3R)-3-methyl-1,2,3,4-tetrahydroisoquinoline-2-carbonyl]-2,3-dihydro-1H-isoindol-5-yl}-N-(4-hydroxyphenyl)-N-methyl-5,6,7,8-tetrahydroindolizine-1-carboxamide] | 33 | 460 |
| C[C@H](C(=O)N1CCc2cc(-c3cc(C(=O)N(C)c4ccc(O)cc4)c4n3CCCC4)c(C(=O)N3Cc4ccccc4C[C@H]3C)cc2C1)c1ccccc1 [Example 90, N-(4-Hydroxyphenyl)-N-methyl-3-{7-[(3R)-3-methyl-1,2,3,4-tetrahydroisoquinoline-2-carbonyl]-2-[(2S)-2-phenylpropanoyl]-1,2,3,4-tetrahydroisoquinolin-6-yl}-5,6,7,8-tetrahydroindolizine-1-carboxamide] | 6.2 | 39 |
| CN(C(=O)c1cc(-c2cc3c(cc2C(=O)N2Cc4ccccc4C[C@H]2CN2CCOCC2)CN(C(=O)c2ccccc2)C3)n2c1CCCC2)c1ccc(O)cc1 [Example 12, 3-{2-Benzoyl-6-[(3S)-3-(morpholin-4-ylmethyl)-1,2,3,4-tetrahydroisoquinoline-2-carbonyl]-2,3-dihydro-1H-isoindol-5-yl}-N-(4-hydroxyphenyl)-N-methyl-5,6,7,8-tetrahydroindolizine-1-carboxamide hydrochloride] | 43 | 759 |
| Cc1c(C(=O)N(C)c2ccc(O)cc2)cc(-c2cc3c(cc2C(=O)N2Cc4ccccc4C[C@H]2CN(C)C)CN(C(=O)C(F)(F)F)CC3)n1C [Example 782, 5-{7-[(3S)-3-[(Dimethylamino)methyl]-1,2,3,4-tetrahydroisoquinoline-2-carbonyl]-2-(trifluoroacetyl)-1,2,3,4-tetrahydroisoquinolin-6-yl}-N-(4-hydroxyphenyl)-N,1,2-trimethyl-1H-pyrrole-3-carboxamide] | 51 | 112 |
| CCN(C(=O)c1cc(-c2cc3c(cc2C(=O)N2Cc4ccccc4C[C@H]2CN2CCOCC2)CN(C(=O)Cc2ccccc2)CC3)n(C)c1C)c1ccc(O)cc1 [Example 780, N-Ethyl-N-(4-hydroxyphenyl)-1,2-dimethyl-5-{7-[(3S)-3-(morpholin-4-ylmethyl)-1,2,3,4-tetrahydroisoquinoline-2-carbonyl]-2-(2-phenylacetyl)-1,2,3,4-tetrahydroisoquinolin-6-yl}-1H-pyrrole-3-carboxamide] | 3.5 | 17 |
| COc1cc(C#N)ccc1OC(=O)N1CCc2cc(-c3cc(C(=O)N(C)c4ccc(O)cc4)c4n3CCCC4)c(C(=O)N3Cc4ccccc4C[C@H]3CN3CCOCC3)cc2C1 [Example 148, 4-Cyano-2-methoxyphenyl 6-{1-[(4-hydroxyphenyl)(methyl)carbamoyl]-5,6,7,8-tetrahydroindolizin-3-yl}-7-[(3S)-3-(morpholin-4-ylmethyl)-1,2,3,4-tetrahydroisoquinoline-2-carbonyl]-1,2,3,4-tetrahydroisoquinoline-2-carboxylate] | 3 | 10 |
| COc1ccc(OC(=O)N2CCc3cc(-c4cc(C(=O)N(C)c5ccc(O)cc5)c5n4CCCC5)c(C(=O)N4Cc5ccccc5C[C@H]4CN4CCOCC4)cc3C2)cc1 [Example 121, 4-Methoxyphenyl 6-{1-[(4-hydroxyphenyl)(methyl)carbamoyl]-5,6,7,8-tetrahydroindolizin-3-yl}-7-[(3S)-3-(morpholin-4-ylmethyl)-1,2,3,4-tetrahydroisoquinoline-2-carbonyl]-1,2,3,4-tetrahydroisoquinoline-2-carboxylate] | 2.9 | 2.8 |
| Cc1c(C(=O)N(C)c2ccccc2)cc(-c2cc3c(cc2C(=O)N2Cc4ccccc4C[C@H]2C)CNCC3)n1C [Example 119, N,1,2-Trimethyl-5-{7-[(3R)-3-methyl-1,2,3,4-tetrahydroisoquinoline-2-carbonyl]-1,2,3,4-tetrahydroisoquinolin-6-yl}-N-phenyl-1H-pyrrole-3-carboxamide hydrochloride] | 622 | > 150 |
| Cc1c(C(=O)N(C)c2ccc(O)cc2)cc(-c2cc3c(cc2C(=O)N2Cc4ccccc4C[C@H]2C)CN(C(=O)Oc2ccccc2OCCN(C)C)CC3)n1C [Example 392, 2-[2-(Dimethylamino)ethoxy]phenyl 6-{4-[(4-hydroxyphenyl) (methyl)carbamoyl]-1,5-dimethyl-1H-pyrrol-2-yl}-7-[(3R)-3-methyl-1,2,3,4-tetrahydroisoquinoline-2-carbonyl]-1,2,3,4-tetrahydroisoquinoline-2-carboxylate] | 2 | 14 |
| Cc1c(C(=O)N(C)c2ccc(O)cc2)cc(-c2cc3c(cc2C(=O)N2Cc4ccccc4C[C@H]2CCN2CCOCC2)CN(C(=O)Cc2ccccc2)CC3)n1C [Example 779, N-(4-Hydroxyphenyl)-N,1,2-trimethyl-5-{7-[(3S)-3-[2-(morpholin-4-yl)ethyl]-1,2,3,4-tetrahydroisoquinoline-2-carbonyl]-2-(2-phenylacetyl)-1,2,3,4-tetrahydroisoquinolin-6-yl}-1H-pyrrole-3-carboxamide] | 2.9 | 24 |
| CN(C(=O)c1cc(-c2cc3c(cc2C(=O)N2Cc4ccccc4C[C@H]2CN2CCOCC2)CN(C(=O)Oc2ccc(OC(F)(F)F)cc2)CC3)n2c1CCCC2)c1ccc(O)cc1 [Example 125, 4-(Trifluoromethoxy)phenyl 6-{1-[(4-hydroxyphenyl)(methyl)carbamoyl]-5,6,7,8-tetrahydroindolizin-3-yl}-7-[(3S)-3-(morpholin-4-ylmethyl)-1,2,3,4-tetrahydroisoquinoline-2-carbonyl]-1,2,3,4-tetrahydroisoquinoline-2-carboxylate] | 8.7 | 49 |
